From US8563741B2, “CDK inhibitors containing a zinc binding moiety” (Curis, Inc., priority 2007, dated 2013)

Columns and labels:
Format in all cases: biochemical
CDK2/cyclinE = molecular target: T1, CDK2/cyclinE (Homo sapiens, UniProt P24941); assay: CDK activity assay with p33 ATP, CDK2/cyclinE; conditions: 1 μM ATP
T1 construct: C-terminal 6His-tagged, recombinant full-length CDK2 (MW=34 kDa); 6His (C); made in house; host or cells: Sf21 cells (baculovirus)
Method: CDK2/cyclinE (Accession Number for CDK2; EMBL M68520, for cyclinE1; GenBank NM_001238):
C-terminal 6His-tagged, recombinant full-length CDK2 (MW=34 kDa) in complex with N-terminal GST-tagged, recombinant full-length cyclinE1 (MW=74 kDa) were expressed with baculovirus system in Sf21 cells. Recombinant proteins were purified using Ni2+/NTA agarose and the purity of recombinant protein complex was measured to be around 76% by SDS-PAGE and Coomassie blue staining. Specific Activity of recombinant CDK2/cyclinE was 1336 U/mg, where one unit of CDK2/cylinE1 activity is defined as 1 nmol phosphate incorporated into 0.1 mg/ml histone H1 per minute at 30° C. with a final ATP concentration of 100 μM. Enzyme was stored with concentration of 0.1 mg/ml in 50 mM Tris/HCl pH 7.5, 150 mM NaCl, 0.03% Brij-35, 0.1 mM EGTA, 0.2 mM PMSF, 1 mM benzamidine, 0.1% 2-mercaptoethanol, 270 mM sucrose.

HDAC = HDAC fluorimetric assay kit (AK-500, Biomol), HeLa nuclear extract
Method: HDAC inhibitors were screened using an HDAC fluorimetric assay kit (AK-500, Biomol, Plymouth Meeting, Pa.). […] Each assay was setup as follows: Defrosted all kit components and kept on ice until use. Diluted HeLa nuclear extract 1:29 in Assay Buffer (50 mM Tris/Cl, pH 8.0, 137 mM NaCl, 2.7 mM KCl, 1 mM MgCl2). Prepared dilutions of Trichostatin A (TSA, positive control) and tested compounds in assay buffer (5× of final concentration). Diluted Fluor de LysTM Substrate in assay buffer to 100 uM (50 fold=2× final). Diluted Fluor de LysTM developer concentrate 20-fold (e.g. 50 μl plus 950 μl Assay Buffer) in cold assay buffer. Second, diluted the 0.2 mM Trichostatin A 100-fold in the 1× Developer (e.g. 10 μl in 1 ml; final Trichostatin A concentration in the 1× Developer=2 μM; final concentration after addition to HDAC/Substrate reaction=1 μM). Added Assay buffer, diluted trichostatin A or test inhibitor to appropriate wells of the microtiter plate. Added diluted HeLa extract or other HDAC sample to all wells except for negative controls. Allowed diluted Fluor de LysTM Substrate and the samples in the microtiter plate to equilibrate to assay temperature (e.g. 25 or 37° C. Initiated HDAC reactions by adding diluted substrate (25 μl) to each well and mixing thoroughly. Allowed HDAC reactions to proceed for 1 hour and then stopped them by addition of Fluor de LysTM Developer (50 μl). Incubated plate at room temperature (25° C.) for 10-15 min. Read samples in a microtiter-plate reading fluorimeter capable of excitation at a wavelength in the range 350-380 nm and detection of emitted light in the range 440-460 nm.

CDK6/cyclinD3 = molecular target: T2, CDK6/cyclinD3 (Homo sapiens, UniProt Q00534); assay: CDK activity assay with p33 ATP, CDK6/cyclinD3; conditions: 1 μM ATP; read-out: CDK6/cyclinD IC50
T2 construct: N-terminal, 6His-tagged full-length human cdk6 (MW=38 kDa); 6His (N); made in house; host or cells: Sf21 cells
Method: CDK6/cyclinD3 (Accession Number for CDK6; GenBank X66365, for Cyclin D3; EMBL M90814):
N-terminal, 6His-tagged full-length human cdk6 (MW=38 kDa) complexed with N-terminal GST-tagged full-length human cyclin D3 (MW=59 kDa) were expressed in Sf21 cells. Recombinant protein complex was purified using glutathione-agarose and activated with CAK, and repurified with Ni2+/NTA-agarose column. Purity was measured to be at least 68%. Specific Activity was measured to be 39 U/mg, where one unit of cdk6/cyclinD3 activity is defined as 1 nmol phosphate incorporated into 0.1 mg/ml histone H1 per minute at 30° C. with a final ATP concentration of 100 μM. Enzyme was stored at concentration of 0.1 mg/ml in 50 mM Tris-HCl, pH 7.5, 270 mM sucrose, 150 mM NaCl, 1 mM benzamidine, 0.2 mM PMSF, 0.1% 2-mercaptoethanol, 0.1 mM EGTA, 0.03% Brij 35.

T2 sequence (Q00534 whole entry): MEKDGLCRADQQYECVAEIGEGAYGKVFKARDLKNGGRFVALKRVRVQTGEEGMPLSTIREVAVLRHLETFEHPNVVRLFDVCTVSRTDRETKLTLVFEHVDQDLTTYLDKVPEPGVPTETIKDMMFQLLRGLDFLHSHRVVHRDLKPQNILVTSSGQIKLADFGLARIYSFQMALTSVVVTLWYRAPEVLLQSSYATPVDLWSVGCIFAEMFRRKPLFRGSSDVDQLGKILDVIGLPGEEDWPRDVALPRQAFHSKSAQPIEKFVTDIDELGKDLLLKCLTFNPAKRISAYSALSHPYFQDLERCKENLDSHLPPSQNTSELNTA
T2 sequence (P30281 whole entry partner): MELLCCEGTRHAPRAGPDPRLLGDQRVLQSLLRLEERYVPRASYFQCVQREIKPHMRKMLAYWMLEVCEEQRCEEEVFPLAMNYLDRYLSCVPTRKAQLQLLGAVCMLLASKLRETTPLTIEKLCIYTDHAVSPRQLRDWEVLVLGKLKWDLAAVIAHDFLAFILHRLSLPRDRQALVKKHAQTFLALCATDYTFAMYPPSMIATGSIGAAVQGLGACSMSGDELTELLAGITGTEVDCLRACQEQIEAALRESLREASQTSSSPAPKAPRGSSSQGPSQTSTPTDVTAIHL

| IC50 (CDK2/cyclinE) [nM] | IC50 (HDAC) [nM] | IC50 (CDK6/cyclinD3) [nM] | Compound |
| --- | --- | --- | --- |
| < 100 | > 10000 | 100 to 1000 | CC(C)(C)c1cnc(CSc2cnc(NC(=O)CCCNCCC(=O)NO)s2)o1 [Compound 13, N-(5-((5-tert-butyloxazol-2-yl)methylthio)thiazol-2-yl)-4-(3-(hydroxyamino)-3-oxopropylamino)butanamide] |
| < 100 | 100 to 1000 | 100 to 1000 | CC(C)(C)c1cnc(CSc2cnc(NC(=O)CCCC(=O)NO)s2)o1 [Compound 5, N^1-(5-((5-tert-butyloxazol-2-yl)methylthio)thiazol-2-yl)-N^5-hydroxyglutaramide] |
| < 100 | 100 to 1000 | 100 to 1000 | CC(C)(C)c1cnc(CSc2cnc(NC(=O)CCCCC(=O)NO)s2)o1 [Compound 6, N^1-(5-((5-tert-butyloxazol-2-yl)methylthio)-thiazol-2-yl)-N^6-hydroxyadipamide] |
